According to patent US11033567B2, “5-aza-2′-deoxycytidine and methods of use thereof for promoting wound healing and regeneration” (THE TRUSTEES OF THE UNIVERSITY OF PENNSYLVANIA, priority 2014, dated 2021):
“Also recorded” adds a separate entry of the source.

Legend:
[1] = system: C57B mice carrying full-thickness skin wounds; assay: Effect of systemic Aza-dC treatment (injection) on wound healing and hair follicle regeneration; format: in vivo
Description: Determining the Effect of Systemic Aza-dC Treatment on Wound Healing and Regeneration:
The dermis was fixed in acetone overnight.

[2] = system: C57B mice carrying full-thickness skin wounds; assay: Effect of topical Aza-dC treatment on wound healing and hair follicle regeneration; format: in vivo; settings: for hair follicle (HF) neogenesis compared to the vehicle control / hair follicle regeneration: topical; for hair follicle (HF) neogenesis compared to the vehicle control: once a day for 2 consecutive days (SD0 & SD1); for hair follicle regeneration: once a day for 5 consecutive days
Description: Determining the Effect of Topical Aza-dC Treatment on Wound Healing and Regeneration: […]

## Nc1ncn([C@H]2C[C@H](O)[C@@H](CO)O2)c(=O)n1 [Aza-dC, 5-aza-2′-deoxycytidine]
[1]; injection, 30 μg per gram body weight once a day for 5 consecutive days (SD0 to SD4)
  regeneration of hair follicles in healed wounds: greatly inhibited
[1]; single injection of 30 μg per gram body weight on SD0
  hair follicle regeneration: no effect
[1]; single injection of 30 μg per gram body weight on SD1
  hair follicle regeneration: inhibition on hair follicle regeneration; also recorded: greatly inhibited
[2]; topical application, unlike systemic treatment
  inhibitory effect on wound-induced hair follicle regeneration: little inhibitory effect
[2]; topical treatment extended to 5 days (SD0 to SD4)
  stimulatory effect on regeneration: diminished
[2]; all doses tested
  hair follicle (HF) neogenesis compared to the vehicle control: greatly enhanced
[2]; highest tested dose 10 μg
  hair follicle (HF) neogenesis compared to the vehicle control: strongest enhancement
[2]; 1 μg
  hair follicle regeneration: little effect
[2]; 5 μg
  hair follicle regeneration: little effect
[2]; 10 μg
  hair follicle regeneration: still enhanced
